Measured values as given in US20220259656A1, “BLOOD BIOMARKER AND GENETIC MARKERS ASSOCIATED WITH RESPONSE TO CRTH2 RECEPTOR ANTAGONISTS” (Merck Sharp & Dohme Corp., priority 2019, published 2022).

Tests used:
allergic rhinitis = conditions: in vivo; cited from earlier work
[1] = system: participants with persistent asthma uncontrolled on montelukast, positive for C allele of rs12748961 SNP; experiment: Randomized, placebo-controlled, double-blind clinical study of Compound A added to montelukast; change from baseline in FEV1; format: in vivo, human; conditions: for Average Change From Baseline FEV1 (L), Mean: Cmpd A 150 mg + ML
Protocol: The inventors conducted a world-wide, randomized, placebo-controlled, double-blind, parallel group study of the CRTH2 receptor antagonist, {(7R)-4-fluoro-7-[5-(4-fluorobenzyl)-1H-[1,2,3]triazol-1-yl]-6,7,8,9-tetrahydropyrido[1,2-a]indol-10-yl}-acetic acid (hereinafter “Compound A”) in participants with persistent asthma who remained uncontrolled while being maintained on montelukast (ML). At Prescreening Visit 1, participants were tested for the presence of the rs 12748961 SNP to determine eligibility. The primary efficacy analysis compared the effect of Compound A to placebo, when each was added to montelukast, on the average change from baseline in FEV1 using a constrained longitudinal data analysis model.
Eligible participants were male and female participants between the ages of 18 and 65 with persistent asthma for at least 1 year and a documented SNP+test result. Participants also must have had acceptable lung function at Visit 2 and Visit 4 and evidence of reversibility of airway obstruction. Approximately 139 eligible participants whose asthma was uncontrolled during a run-in period of approximately 2 to 4 weeks entered a 6-week double-blind treatment period and were randomized in a 1:1 ratio to receive either Compound A 150 mg and montelukast 10 mg or Compound A 150 mg matching-image placebo and montelukast 10 mg. Randomization was stratified according to the number of C alleles (having either 1 or 2 copies of the allele) at the rs12748961 SNP. The total study duration for each participant was up to 17 weeks.
FIG. 2 is a graphical depiction of the study design. Briefly, salient activities occurring during the study are described below. During a pre-screening visit, a blood sample is collected to assess for the presence of the C-allele of rs12748961 SNP. At the start of the pre-study period, eligible subjects receiving Long-Acting Beta-Agonist (LABA) therapy were asked to discontinue the LABA. During run-in period (approximately 2 to 4 weeks), subjects receive single-blind Compound A 150 mg matching-image placebo and open-label montelukast 10 mg. Subjects taking asthma controller therapies prior to Visit 2 were asked to discontinue or taper off these pre-study medications before randomization while receiving open-label montelukast 10 mg. During the treatment period (approximately 6 weeks): Subjects received double-blind treatment of Compound A 150 mg plus montelukast 10 mg; or Compound A 150 mg matching-image placebo plus montelukast 10 mg.
In order to identify patient groups susceptible to treatment response, the inventors conducted an analysis on pre-specified patient subgroups in the study based on (a) demographic variables (including age, gender, race, weight, height, and body mass index) and (b) baseline characteristics (including duration of asthma, age diagnosed of asthma, asthma controller pre- trial, ICS use, blood eosinophil count, baseline ACQ-6, and smoking history), (c) prior and secondary diagnoses, (d) prior and concomitant therapies, and (e) the number of C alleles of the rs12748961 SNP on asthmatic study subjects who had undergone a clinical trial with a CRTH2 receptor antagonist and the leukotriene antagonist montelukast. The analysis sought to assess whether a mean treatment difference varies across patient subgroups defined by several pre-specified characteristics and who also tested positive for at least one copy of the C allele of the rs12748961 SNP.

[2] = system: patient population afflicted with eosinophilic severe asthma; conditions: patients with eosinophilic severe asthma, Phase IIa; cited from earlier work
[3] = Cmpd A 150 mg + montelukast 10 mg, full study population

O=C(O)CCn1c2c(c3ccccc31)C[C@H](NS(=O)(=O)c1ccc(F)cc1)CC2 [Ramatroban, 3-((3R)-3-{[(4-fluorophenyl)sulfonyl]amino}-1,2,3,4-tetrahydro-9H-carbazol-9-yl)propanoic acid]
efficacy in allergic rhinitis (allergic rhinitis): some degree of efficacy

O=C(O)Cc1c2n(c3c(F)cccc13)C[C@H](n1nncc1Cc1ccc(F)cc1)CC2 [Compound A, {(7R)-4-fluoro-7-[5-(4-fluorobenzyl)-1H-[1,2,3]triazol-1-yl]-6,7,8,9-tetrahydropyrido[1,2-a]indol-10-yl}-acetic acid]
Estimated Differences with placebo + ML, Difference in LS Means, FEV1 at Week 4 and Week 6 ([1]; Cmpd A 150 mg + ML vs. placebo + ML, full study population): 107 mL
Estimated Differences With Placebo + ML, LS Mean, FEV1 ([1]; Cmpd A 150 mg + ML vs. placebo + ML, subgroup baseline eosinophil count <0.30 × 10^9/L): 63 mL
Estimated Differences With Placebo + ML, LS Mean, FEV1 ([1]; Cmpd A 150 mg + ML vs. placebo + ML, subgroup baseline eosinophil count >0.30 × 10^9/L): 193 mL
Average Change From Baseline FEV1 (L), Mean ([1]; subgroup baseline eosinophil count <0.30 × 10^9/L): 0.166 L
Average Change From Baseline FEV1 (L), Mean ([1]; subgroup baseline eosinophil count >0.30 × 10^9/L): 0.139 L
Average Change from Baseline in FEV1 (L) at Week 4 and Week 6, Mean [1, 3]: 0.156 L
Average Change from Baseline in FEV1 (L) at Week 4 and Week 6, Median [1, 3]: 0.091 L
FEV1 (L) Average at Week 4 and Week 6, Mean ([1]; Cmpd A 150 mg + montelukast 10 mg, full study population, 6-week treatment): 2.426 L
Average Change from Baseline in FEV1 (L) at Week 4 and Week 6, LS Mean ([1]; Cmpd A 150 mg + montelukast 10 mg, full study population, cLDA model): 0.152 L

Cc1c(CC(=O)O)c2cccnc2n1Cc1ccc(S(C)(=O)=O)cc1C(F)(F)F [fevipiprant, 2-(2-methyl-1-(4-(methylsulfonyl)-2-(trifluoromethyl)benzyl)-1H-pyrrolo[2,3-b]pyridin-3-yl)acetic acid]
sputum eosinophils [2]: reduction of sputum eosinophils
